{"source": "patent US20170157251A1", "about": "“Bi-Specific Monovalent Diabodies That are Capable of Binding CD19 and CD3, and Uses Thereof” (MacroGenics, Inc., priority 2015, published 2017)", "key": {"human PBMCs": {"system": "human PBMCs", "assay": "T-cell activation and cytokine release with DART-A-mediated B-cell depletion in human PBMCs in the presence of ibrutinib", "format": "cell-based", "source_text": "(§1) An autologous B-cell depletion assay with human PBMCs, which comprise both target cells (CD19+ B cells) and effector cells (CD3+ T cells) in a physiologically relevant cellular context, was utilized to evaluate the effect of ibrutinib on DART-A-mediated primary B-cell depletion, concomitant T-cell activation, and cytokine release."}, "human T cells [1]": {"system": "human T cells", "assay": "Ibrutinib alone on ex vivo T-cell proliferation (CellTiter-Glo)", "format": "cell-based", "settings": "25, 250, 750 or 2500 nM, up to 3 days", "protocol": "(§2) Normal human T cells (100,000/well) were treated with increasing concentrations of ibrutinib (0 nM, 25 nM, 250 nM, 750 nM or 2500 nM) for 0, 24, 48, and 72 hours under ex vivo T-cell proliferation/activation conditions, which contained T-cell activator anti-CD3/CD28 Dynabeads and rhIL-2.\nCell viability was determined using the CellTiter-Glo® Luminescent Viability Assay with relative light units (RLU) proportional to the number of viable cells."}, "primary B-cell (CD20+)": {"system": "primary B-cell (CD20+)", "assay": "DART-A-mediated autologous B-cell depletion with human PBMCs in the presence of ibrutinib", "format": "cell-based", "source_text": "as §1"}, "Raji/GF target cells": {"system": "Raji/GF target cells", "assay": "DART-A-mediated redirected killing of Raji/GF cells with concomitant ibrutinib", "format": "cell-based, human", "protocol": "Suspension-cultured CD19-positive Raji/GF cells were harvested and washed with 1×DPBS or assay media containing RPMI 1640 without phenol red, 10% FBS, and pen/strep. Cell concentration and viability were measured by Trypan Blue dye exclusion using a Beckman Coulter Vi-Cell counter. The target cells were diluted in assay media to a cell density of 2×10^5 cells/mL. 50 μL of the diluted cell suspension was added to a 96-well, flat-bottom NUNCLON DELTA white plate (Thermo Scientific Cat #136101). For each treatment, duplicate wells were included. Human T cells, following treatment with ibrutinib for various times as described above, were collected and washed 3 times with assay media. After the final wash, the T cells were counted and resuspended in the assay medium at a cell density of 1×10^6 cells/mL and 100 μL were added to each well. […] The plates were incubated at room temperature in the dark for 10 minutes and then luciferase intensity was measured using a Victor2 Multilabel plate reader (Perkin Elmer #1420-014) with luciferase relative light unit (RLU) as the read-out. […] The percent cytotoxicity values were calculated as described below and concentration-response curves were generated using GraphPad Prism 6 software with curve fitting by the sigmoidal dose-response function. […]"}, "[2]": {"settings": "once daily oral dose of 560 mg, cited from earlier work"}, "Raji/GF cells": {"system": "Raji/GF cells", "assay": "DART-A-mediated redirected killing of Raji/GF cells using ibrutinib-pretreated T cells (luciferase)", "format": "cell-based, human", "settings": "T cells pretreated with 2500 nM ibrutinib", "protocol": "Suspension-cultured CD19-positive Raji/GF cells were harvested and washed with 1×DPBS or assay media containing RPMI 1640 without phenol red, 10% FBS, and pen/strep. Cell concentration and viability were measured by Trypan Blue dye exclusion using a Beckman Coulter Vi-Cell counter. The target cells were diluted in assay media to a cell density of 2×10^5 cells/mL. 50 μL of the diluted cell suspension was added to a 96-well, flat-bottom NUNCLON DELTA white plate (Thermo Scientific Cat #136101). For each treatment, duplicate wells were included. Human T cells, following treatment with ibrutinib for various times as described above, were collected and washed 3 times with assay media. After the final wash, the T cells were counted and resuspended in the assay medium at a cell density of 1×10^6 cells/mL and 100 μL were added to each well. […] The plates were incubated at room temperature in the dark for 10 minutes and then luciferase intensity was measured using a Victor2 Multilabel plate reader (Perkin Elmer #1420-014) with luciferase relative light unit (RLU) as the read-out. […] The percent cytotoxicity values were calculated as described below and concentration-response curves were generated using GraphPad Prism 6 software with curve fitting by the sigmoidal dose-response function.\nSpecific cell lysis was calculated from RLU data using the following formula: […]"}, "[3]": {"system": "human CD4+ and CD8+ T cells", "assay": "DART-A-mediated T cell activation (CD25) with Raji/GF cells and concomitant ibrutinib", "format": "cell-based", "protocol": "Assays were conducted as described above, except that: 1) fresh human T cells were substituted for ibrutinib pretreated human T cells; 2) 50 μL of T cells containing 200,000 cells were added into each well; and 3) 50 μL of ibrutinib solution at 10, 3, 1, 0.2, or 0 μM were added into the assay plates. […] The ibrutinib solutions were prepared by diluting a 1000 μM stock solution in 100% DMSO in assay medium with DMSO concentration being diluted to 1% DMSO. The final ibrutinib concentrations on the plate were 2500, 750, 250, 50, or 0 nM and the final DMSO concentration was 0.25%. Plates were incubated and processed as described previously.\nHowever, the presence of ibrutinib inhibited DART-A-mediated CD25 upregulation in a concentration-dependent manner."}, "human T cells [4]": {"system": "human T cells", "assay": "Ibrutinib alone on ex vivo T-cell cytokine production (ELISA)", "format": "cell-based", "protocol": "as §2\nProduction of IFN-γ, TNF-α, and IL-10 was measured by ELISA. […] Because of the minimal IL-6 cytokine production under the ex vivo T-cell proliferation/activation conditions tested, evaluation of ibrutinib's effect on IL-6 induction was not feasible."}, "human T cells [5]": {"system": "human T cells", "assay": "Ibrutinib alone on ex vivo T-cell activation (CD25)", "format": "cell-based", "protocol": "as §2\nThe percentages of CD25 in CD4+ and CD8+ T cell subsets were determined by flow cytometry. The effect of ibrutinib treatment alone on upregulation of CD25, a T-cell activation marker, was also evaluated on T cells activated with anti-CD3/CD28 and rhIL2."}, "target cell": {"system": "target cell", "settings": "reported; cited from earlier work"}, "CD19": {"molecular_target": "T1, CD19 (Homo sapiens, UniProt P15391)", "T1 sequence (P15391 20-556)": "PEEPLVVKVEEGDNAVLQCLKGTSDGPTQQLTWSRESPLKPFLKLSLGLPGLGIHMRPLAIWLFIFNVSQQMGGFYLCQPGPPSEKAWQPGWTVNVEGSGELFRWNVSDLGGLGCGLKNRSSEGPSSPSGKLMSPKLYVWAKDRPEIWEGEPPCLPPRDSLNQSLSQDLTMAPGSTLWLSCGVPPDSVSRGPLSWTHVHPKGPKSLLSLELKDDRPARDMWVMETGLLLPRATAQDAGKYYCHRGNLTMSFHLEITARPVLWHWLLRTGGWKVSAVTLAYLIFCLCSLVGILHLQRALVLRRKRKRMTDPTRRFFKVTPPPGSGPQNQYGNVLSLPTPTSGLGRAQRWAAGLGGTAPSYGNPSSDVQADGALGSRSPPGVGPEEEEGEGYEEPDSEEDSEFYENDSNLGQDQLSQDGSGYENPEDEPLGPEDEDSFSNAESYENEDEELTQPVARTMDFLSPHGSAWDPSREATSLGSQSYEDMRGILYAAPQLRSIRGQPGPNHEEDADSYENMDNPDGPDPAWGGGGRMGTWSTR", "settings": "reported; read-out: affinity for CD19; cited from earlier work"}, "CD3": {"molecular_target": "CD3 (Homo sapiens, UniProt P07766)", "sequence (P07766 23-207)": "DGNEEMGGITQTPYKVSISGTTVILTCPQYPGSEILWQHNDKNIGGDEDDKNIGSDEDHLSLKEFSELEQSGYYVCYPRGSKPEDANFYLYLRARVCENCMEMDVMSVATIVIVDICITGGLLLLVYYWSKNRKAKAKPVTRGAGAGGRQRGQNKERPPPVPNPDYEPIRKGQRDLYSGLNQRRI", "sequence (P04234 22-171 partner)": "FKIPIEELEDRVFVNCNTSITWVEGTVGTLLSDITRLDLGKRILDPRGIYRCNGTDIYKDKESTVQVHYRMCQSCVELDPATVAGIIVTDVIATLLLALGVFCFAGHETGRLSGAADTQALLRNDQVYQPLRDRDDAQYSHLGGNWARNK", "sequence (P09693 23-182 partner)": "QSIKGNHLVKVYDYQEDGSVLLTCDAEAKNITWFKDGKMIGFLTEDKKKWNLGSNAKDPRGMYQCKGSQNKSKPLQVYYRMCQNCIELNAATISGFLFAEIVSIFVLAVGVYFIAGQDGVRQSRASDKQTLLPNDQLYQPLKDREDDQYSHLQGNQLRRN", "settings": "reported; read-out: affinity for CD3; cited from earlier work"}, "indolent lymphomas": {"system": "indolent lymphomas", "settings": "retreatment with single agent; cited from earlier work"}}}
{"compound": "C=CC(=O)N1CCC[C@@H](n2nc(-c3ccc(Oc4ccccc4)cc3)c3c(N)ncnc32)C1", "note": "[ibrutinib, 1-[(3R)-3-[4-Amino-3-(4-phenoxyphenyl)-1H-pyrazolo[3,4-d]pyrimidin-1-yl]piperidin-1-yl]prop-2-en-1-one, reference compound]", "values": [{"measurement": "inhibition of concomitant T-cell activation and cytokine production", "setting": "human PBMCs; ibrutinib 250 nM", "value": "partial inhibition"}, {"measurement": "inhibition of concomitant T-cell activation and cytokine production", "setting": "human PBMCs; ibrutinib 2500 nM", "value": "nearly complete inhibition"}, {"measurement": "ability of T cells to respond to anti-CD3/CD28 and rhIL-2 stimulation (cell numbers)", "setting": "human T cells [1]", "value": "had no impact"}, {"measurement": "inhibition at 0.75 µM", "setting": "primary B-cell (CD20+); Homo sapiens, B-cell, ibrutinib 750 nM", "value": 8, "unit": "%"}, {"measurement": "inhibition at 2.5 µM", "setting": "primary B-cell (CD20+); Homo sapiens, B-cell, ibrutinib 2500 nM", "value": 60, "unit": "%"}, {"measurement": "inhibition of DART-A-mediated primary B-cell (CD20+) depletion", "setting": "primary B-cell (CD20+); ibrutinib ≦250 nM", "value": "minimal to no inhibition"}, {"measurement": "increase of DART-A EC50 values", "setting": "Raji/GF target cells; ibrutinib 750 nM, both time points", "value": "8-9 fold"}, {"measurement": "inhibitory effect on DART-A-mediated redirected T-cell killing", "setting": "Raji/GF target cells; ibrutinib ≦250 nM", "value": "no or minimal inhibitory effect"}, {"measurement": "minimum (Ctrough) serum concentration", "setting": "[2]", "value": "25 to 50", "unit": "nM"}, {"measurement": "Cmax", "setting": "[2]; read-out: maximum (Cmax) serum concentration", "value": "~250", "unit": "nM"}, {"measurement": "increase in DART-A EC50 value", "setting": "Raji/GF cells", "value": "~3", "unit": "fold"}, {"measurement": "Emax at 0.75 µM", "setting": "[3]; ibrutinib 750 nM, read-out: inhibition in the maximal levels (Emax) of T-cell activation", "value": "≤ 36", "unit": "%"}, {"measurement": "Emax at 2.5 µM", "setting": "[3]; ibrutinib 2500 nM, read-out: inhibition in the maximal levels (Emax) of T-cell activation", "value": "≤ 63", "unit": "%"}, {"measurement": "Emax", "setting": "[3]; ibrutinib ≦250 nm, vs untreated group, read-out: inhibition in the maximal levels (Emax) of T cell activation (% CD25)", "value": "< 20", "unit": "%"}, {"measurement": "IFN-γ", "setting": "human T cells [4]; 2500 nM, all time points", "value": "a small reduction in IFN-γ"}, {"measurement": "IL-10 and TNF-α production", "setting": "human T cells [4]; 2500 nM, from 24 hours", "value": "decreased IL-10 and TNF-α production"}, {"measurement": "impact on TNF-α, IL-10 and IFN-γ release", "setting": "human T cells [4]; up to 750 nM, up to 72 hours", "value": "no or minimal impact"}, {"measurement": "impact on CD25+ upregulation", "setting": "human T cells [5]; ibrutinib 750 nM", "value": "some modest impact"}, {"measurement": "reduction in the number of CD4+/CD25+ T cells", "setting": "human T cells [5]; ibrutinib 2500 nM, 24 hour", "value": "~60", "unit": "%"}, {"measurement": "reduction in the number of CD8+/CD25+ T cells", "setting": "human T cells [5]; ibrutinib 2500 nM, 24 hour", "value": "~95", "unit": "%"}, {"measurement": "inhibition of CD25 upregulation", "setting": "human T cells [5]; ibrutinib ≦250 nM", "value": "minimal or no inhibition"}]}
{"compound": "Blinatumomab: bi-specific scFv-CD19×CD3 BiTE", "values": [{"measurement": "EC50 for target cell lysis in vitro", "setting": "target cell", "value": "0.01 to 0.1", "unit": "ng/mL"}, {"measurement": "Kd", "setting": "CD19", "value": "~1", "unit": "nM"}, {"measurement": "Kd", "setting": "CD3", "value": "~100", "unit": "nM"}]}
{"compound": "rituximab: anti-CD20 monoclonal antibody", "values": [{"measurement": "response rate", "setting": "indolent lymphomas", "value": 40, "unit": "%"}]}
